In patent US20170239289A1, “TREATMENT OF INFLAMMATION, RESPIRATORY TRACT INFECTIONS AND CYSTIC FIBROSIS” (Advanced Inhalation Therapies (AIT) Ltd., priority 2014, published 2017):
Entries after “also recorded” stand apart in the source; their conditions may differ.

Experiments:
Assay type in all cases: in vivo
[1] = system: human subjects diagnosed with cystic fibrosis; test: Example 4: CF study, 160 ppm NO 30 min 3x daily for 10 treatment days; safety
Procedure: In addition to their standard care, subjects were administered three 30-minute inhalations per day of 160 ppm NO (with O2/air) for 10 working days (i.e., 5 days on treatment, 2 days off treatment, 5 days on treatment, for a total of 10 treatment days and 30 inhalations).
A minimum time interval of 3.5 hours from the end of one treatment to the beginning of the next treatment was required.
As a safety measure, during NO administration, human subjects' MetHb and 02 saturation levels in the blood were monitored utilizing a commercial “off the shelf” co-oxymeter (Masimo Corporation Model RAD-57/RAD 87).
In the event of MetHb greater than 5% or O2 saturation less than or equal to 88%, treatment was temporarily discontinued, and measure repeated 30 minutes later. If value(s) had returned to above the safety threshold, the next inhalation was started according to protocol. In any case of a second episode of MeHb greater than 5%, study treatment was to be permanently discontinued.
Primary Endpoints—Safety and Tolerability: • Safety • Determine the MetHb levels during treatment with inhaled NO • Determine other AEs associated with inhaled NO • Tolerability • Proportion of subjects (%) who prematurely discontinued the study or study treatment for any reason • Proportion of subjects (%) who prematurely discontinued the study treatment due to AEs or SAEs • Proportion of subjects (%) who prematurely discontinued the study treatment due to AEs or SAEs associated with inhaled NO
All measured variables and derived parameters were listed individually and tabulated by descriptive statistics. For categorical variables, summary tables were provided giving sample size, absolute and relative frequency. For continuous variables, summary tables were provided giving sample size, arithmetic mean, SD, median, minimum and maximum and 95% CI for means of variables. For the ITT cohort, the LOCF approach was applied, when deemed appropriate, to account for missing data at or prior to study termination. Methemoglobin was summarized in appropriate descriptive tables. The percent of subjects with MetHb level greater than 5% was calculated per time point. Changes from baseline in MetHb levels were analyzed using Signed rank test for two means. Laboratory results were summarized in appropriate tables by time. Changes from baseline were calculated and presented as well.

[2] = system: human subjects diagnosed with, or suffering from CF; test: Example 1: open-label Phase 2 CF study, 160 ppm NO 30 min 3x daily, 5 days/week, 2 weeks; safety monitoring
Procedure: (§1) NO was administered via inhalation to nine clinically stable human subjects diagnosed with, or suffering from CF from two medical centers. Patients received three daily 30-minute treatments of 160 ppm NO with at least 3.5 hours between treatments, for 5 days per week over a two-weeks time period.
Safety parameters, including NO and nitrogen dioxide (NO2 via NO2^−/NO3^−) concentrations, inhaled fraction of inspired oxygen (FiO2), methemoglobin level (SpMet, or “% MetHb”), and oxyhemoglobin (oxygen) saturation (SpO2 or SaO2), were continuously monitored using a noninvasive pulse-oximetry device RAD-57™ or RAD-87™ by Masimo Irvine, Calif. These devices also monitor Perfusion Index (PI), Respiration Rate (RRa), Total Hemoglobin (SpHb), Carboxyhemoglobin (SpCO), Oxygen Content (SpOC) and Pleth Variability Index (PVI®). Vital signs, including blood pressure, pulse, and respiratory rate were also closely monitored.

[3] = system: nonmucoid P. aeruginosa; test: Example 1: microbial density in sputum (CFU) during NO inhalation; conditions: Patient 4 (CFSCH04)
Procedure: as §1
(§2) Preliminary efficacy measures included determination of microbial density in sputum and measurements of forced exhaled volume at 1 second (FEV1). Inflammation associated with C-reactive protein (CRP) levels was assessed as a secondary outcome measure. Other inflammation biomarkers, such as interleukins, were also monitored (data not shown).
(§3) Bacterial load was measured for exemplary, non-limiting selection of species that included, P. alcaligenes, methicillin-sensitive Staphylococcus aureus (MSSA), Achromobacter spp., A. fumigates, non-mucoid P. aeruginosa and mucoid P. aeruginosa.

[4] = system: mucoid P. aeruginosa; test: as above; conditions: Patient 4 (CFSCH04)
Procedure: as §1, §2, §3

[5] = system: A. fumigatus; test: as above; conditions: Patient 3 (CFSCH03)
Procedure: as §1, §2, §3

[6] = system: Achromobacter spp.; test: as above; conditions: Patient 3 (CFSCH03)
Procedure: as §1, §2, §3

In the case of [N]=O [NO, nitric oxide], the “AEs of MetHb elevation greater than 5% or NO2 elevation greater than 5 ppm” value ([1]; N=9) is reported as “no AEs”, the “AEs possibly or probably related to treatment, % of subjects” value ([1]; N=9) is reported as 22.2% and the “Adverse events reported by, % of subjects” value ([1]; N=9) is reported as 55.5%. The “Severe or serious AEs” value ([1]; N=9) was “no severe or serious AEs”, the “maximum MetHb level” value ([1]; N=9) was 4.6% and the “total AEs reported” value ([1]; N=9, 20 events in a single subject (SC-01)) was 31. The “Subjects with MetHb greater than 5%” value ([1]; entire study treatment period, N=9) was “no subjects”, the cases of haemoptysis ([1]; in 2 subjects, all events mild) was 7 cases and the “Cumulative effect on MetHb levels” value ([1]; over the study treatment period) was “no “cumulative” effect; also recorded: no cumulative effect”. The “Average MetHb levels post treatment (mean±SD)” value ([2]; 9 subjects, 10 days of treatment) was 2.4%, the “Oxygen saturation post treatment” value ([2]; all 9 subjects) was “more than 92%” and the “MetHb levels throughout the trial (safety limit)” value ([2]; all subjects) was less than 5%. For the same compound, the “Changes in vital signs” value ([2]; during the study) was “no clinically significant changes in vital signs”, the Serious adverse events ([2]; during the study) was “No serious adverse events” and the “decrease in nonmucoid P. aeruginosa counts” value [3] was 1 log. For the same compound, the “decrease in mucoid P. aeruginosa counts” value [4] was 2 log, the “A. fumigatus CFU counts” value [5] was “elimination” and the “decrease in Achromobacter spp. CFU” value [6] was 1 log.
